In the assay the target is T1, SauBCA.
T1 construct: recombinant, obtained in-house as described earlier
The experiment in a line: stopped-flow CO2 hydration assay. It is filed as biochemical, Staphylococcus aureus. The note with it: CO2 1.7-17 mM, 10 mM Hepes pH 7.4, 10 mM NaClO4, 15 min preincubation at room temperature.

6 compounds from publication PMC8168783, “An anion and small molecule inhibition study of the β-carbonic anhydrase from Staphylococcus aureus” (Journal of Enzyme Inhibition and Medicinal Chemistry, 2021) can be followed below.

As a reminder, the Ki is a measure of affinity in units of concentration, obtained from inhibition or displacement.

Regarding `N#C[SeH]` [selenocyanate], the Ki (inhibitor as sodium salt) stood at 5.5 mM.
For `O=S(O)O` [bisulphite], the Ki (inhibitor as sodium salt) worked out at 0.9 mM.
For the compound `CCN(CC)C(=S)S` [N,N-diethyldithiocarbamate], the Ki (inhibitor as sodium salt) turned out to be 0.64 mM.
As to `OB(O)c1ccccc1` [phenylboronic acid], under “not as sodium salt”, the Ki came out at 0.008 mM.
On to `[O]=[Sn]([OH])[OH]` [stannate], for which, under “inhibitor as sodium salt”, the Ki is 0.32 mM.
Take `O=[As](O)(O)c1ccccc1` [phenylarsonic acid]: the Ki (inhibitor as sodium salt) amounted to 0.007 mM.
